test: in vitro; details: human, hela cells, % viability

Row | SMILES | viability at 28.5 h, 10 µM [%]
1 | COc1ccccc1C(=O)N1CCC(Cc2ccc(-c3ccccc3)cc2)(C(N)=O)CC1 [CBK285774] | 100
2 | CCOc1ccccc1C(=O)N1CCC(Cc2ccc(-c3ccccc3)cc2)(C(N)=O)CC1 [CBK285775] | 97
3 | COc1cccc(CC(=O)N2CCC(Cc3ccc(-c4ccccc4)cc3)(C(N)=O)CC2)c1 [CBK285776] | 94.2
4 | COc1ccccc1CC(=O)N1CCC(Cc2ccc(-c3ccccc3)cc2)(C(N)=O)CC1 [CBK285777] | 95.4
5 | COc1cccc(C(=O)N2CCC(Cc3cccc(-c4cccs4)c3)(C(N)=O)CC2)c1 [CBK285781] | 97.8
6 | NC(=O)C1(Cc2cccc(-c3cccs3)c2)CCN(C(=O)Cc2cccc(F)c2)CC1 [CBK285783] | 98
7 | CN(C)C(=O)C1(Cc2ccc(-c3cccs3)cc2)CCN(C(=O)Cc2ccccc2)CC1 [CBK285784] | 93.2
8 | CCNC(=O)C1(Cc2ccc(-c3ccncc3)cc2)CCN(C(=O)CC2CCCCC2)CC1 [CBK285785] | 89.8
9 | CCCC(=O)N1CCC(Cc2ccc(-c3cccc(C)c3)cc2)(C(=O)NC)CC1 [CBK285786] | 104
10 | CNC(=O)C1(Cc2ccc(-c3cccc(C)c3)cc2)CCN(C(=O)CC(C)C)CC1 [CBK285787] | 116
11 | NC(=O)C1(Cc2ccc(-c3ccccc3)cc2)CCN(C(=O)c2ccccc2)CC1 [CBK285789] | 95.1
12 | COc1ccccc1C(=O)N1CCC(Cc2ccc(-c3cccc(C)c3)cc2)(C(N)=O)CC1 [CBK285792] | 89.8
13 | CNC(=O)C1(Cc2ccc(-c3cccs3)cc2)CCN(C(=O)C2CCCCC2)CC1 [CBK285793] | 88
14 | CCNC(=O)C1(Cc2ccc(-c3cccs3)cc2)CCN(C(=O)c2ccccc2)CC1 [CBK285794] | 94.5
15 | Cc1cccc(-c2ccc(CC3(C(N)=O)CCN(C(=O)CCc4ccccc4)CC3)cc2)c1 [CBK285796] | 110
16 | Cc1cccc(-c2ccc(CC3(C(N)=O)CCN(C(=O)COc4ccccc4)CC3)cc2)c1 [CBK285797] | 93.6
17 | Cc1[nH]c2cccc(C(=O)N3CCOC(C)(C(=O)NC4CCCC4)C3)c2c1C (stereo not drawn) [CBK285800] | 87.3
18 | Cc1ccc2[nH]c(Cc3ccc(NC(=O)CCc4nc5ccccc5[nH]4)cc3)nc2c1 [CBK285801] | 87
19 | Cc1ccc2[nH]c(Cc3ccc(NC(=O)c4nc5ccccc5n(C)c4=O)cc3)nc2c1 [CBK285802] | 83.8
20 | COc1ccc(OC)c(C(=O)N2CCNC(=O)C2Cc2ccc(-c3cccs3)cc2)c1 (stereo not drawn) [CBK285803] | 111
21 | CCN1CCN(C(=O)Cc2ccc(OC)cc2)C(Cc2ccc(-c3ccncc3)cc2)C1=O (stereo not drawn) [CBK285804] | 106
22 | Cc1c(C(=O)NCCOc2ccc(-c3ccccc3)cc2)sc2nc[nH]c(=O)c12 [CBK285805] | 92.2
23 | O=C1NCCN(C(=O)c2cccc3cccnc23)C1Cc1ccc(-c2cccs2)cc1 (stereo not drawn) [CBK285809] | 81.4
24 | Cn1nc(C(C)(C)C)cc1C(=O)N1CCNC(=O)C1Cc1ccc(-c2cccs2)cc1 (stereo not drawn) [CBK285810] | 92.2
25 | CCN1CCN(C(=O)c2cccc(N(C)C)c2)C(Cc2ccc(-c3ccncc3)cc2)C1=O (stereo not drawn) [CBK285813] | 101
26 | O=C(Nc1ccc(OCc2ccccc2F)cc1)c1ccc(-n2cnnc2)cc1 [CBK285816] | 81.4

Row | SMILES | viability at 28.5 h, 10 µM [%]
27 | COc1ccc(-c2ccc(OC)cc2C(=O)Nc2cccc(-n3cccn3)c2)cc1 [CBK285818] | 94.6
28 | Cc1ccc(CN2CCC(N3C(=O)NC4(CCN(CC(C)C)CC4)C3=O)CC2)cc1C [CBK285822] | 96.9
29 | O=C(Nc1cccc(-c2nc3ccccc3s2)c1)c1ccc(Cn2cnnn2)cc1 [CBK285823] | 85.2
30 | COc1ccc(CC(=O)N2CCNC(=O)C2Cc2ccccc2-c2ccccc2)cc1OC (stereo not drawn) [CBK285827] | 102
31 | O=C1NCCN(C(=O)c2[nH]nc3c2CCCCC3)C1Cc1ccccc1-c1ccc(F)cc1 (stereo not drawn) [CBK285831] | 98.1
32 | CC(C)c1cc(C(=O)N2CCN(C)C(=O)C2Cc2ccccc2-c2ccc(F)cc2)[nH]n1 (stereo not drawn) [CBK285833] | 92.1
33 | Cc1c(C(=O)Nc2ccc(OCc3ccccc3F)cc2)sc2nc[nH]c(=O)c12 [CBK285834] | 98.5
34 | CNc1nc(C2CCN(C(=O)c3ccc(N4CCC(C)CC4)cc3)C2)nc2c1CCN(C)C2 (stereo not drawn) [CBK285835] | 106
35 | CCCN1CCN(C(=O)c2ccc(=O)n(C)c2)C(Cc2ccccc2-c2ccccc2)C1=O (stereo not drawn) [CBK285836] | 108
36 | CC(=O)Nc1ccc(C(=O)N2CCNC(=O)C2Cc2ccccc2-c2cccc(C)c2)cc1 (stereo not drawn) [CBK285837] | 106
37 | Cc1ccc2[nH]c(-c3cccc(NC(=O)c4cccc(CN5CCCC5=O)c4)c3)nc2c1 [CBK285838] | 85.8
38 | CCOc1ccccc1C(=O)N1CCCCC1c1ncc(C(=O)Nc2ccccc2)c(C)n1 (stereo not drawn) [CBK285840] | 103
39 | CCOc1ccccc1-c1ccccc1NC(=O)c1cc(=O)n(C)c2ccccc12 [CBK285843] | 100
40 | Cc1nc(C2CCN(C(=O)CC3CCCC3)CC2)ncc1C(=O)Nc1ccc(Cl)cc1 [CBK285847] | 97.8
41 | COc1cccc(-c2ccc(NC(=O)CCC3C(=O)Nc4ccccc43)cc2)c1 (stereo not drawn) [CBK285851] | 116
42 | CCN(Cc1cnc(C)s1)[C@H]1CCO[C@@H](c2ccccc2-c2ccc(OC)cc2)C1 [CBK285853] | 95.5
43 | CCOc1ccccc1-c1ccccc1NC(=O)c1nc2ccccc2n(C)c1=O [CBK285855] | 90.1
44 | CC(C)CNC(=O)c1cc([C@H]2CC[C@H](CNC(=O)Cn3cccn3)CC2)nc2ccccc12 [CBK285860] | 102
45 | CC(C)NC(=O)c1cc([C@H]2CC[C@H](CNC(=O)CN3CCCC3)CC2)nc2ccccc12 [CBK285861] | 85.7
46 | CCn1nc(C(=O)Nc2ccccc2-c2ccc(OC)cc2)c2ccccc2c1=O [CBK285864] | 94.1
47 | COc1ccc(-c2ccccc2NC(=O)c2cccc(CN3CCCC3=O)c2)cc1 [CBK285865] | 91.4
48 | Cc1nc(C2CCCCN2C(=O)CCc2ccccc2)ncc1C(=O)Nc1ccc(F)cc1 (stereo not drawn) [CBK285870] | 95.3
49 | Cc1nc(C2CCCCN2C(=O)COc2ccccc2)ncc1C(=O)Nc1ccc(F)cc1 (stereo not drawn) [CBK285871] | 98.6
50 | CC(C)NC(=O)c1sc2ccccc2c1C1CCN(C(=O)COc2ccccc2)C1 (stereo not drawn) [CBK285875] | 113
51 | CNC(=O)c1sc2ccccc2c1C1CCN(C(=O)Cc2coc3c(C)c(C)ccc23)C1 (stereo not drawn) [CBK285876] | 90.3
52 | CNC(=O)c1sc2ccccc2c1C1CCN(S(=O)(=O)c2ccc(C)c(C)c2)C1 (stereo not drawn) [CBK285877] | 85.8

Row | SMILES | viability at 28.5 h, 10 µM [%]
53 | CC(C)NC(=O)c1sc2ccccc2c1C1CN(Cc2cccc3ncccc23)CCO1 (stereo not drawn) [CBK285879] | 85.6
54 | CNC(=O)c1sc2ccccc2c1C1CCN(Cc2cnc(-c3ccc(C)cc3)nc2)C1 (stereo not drawn) [CBK285883] | 108
55 | Nc1nc2c(cc1C(=O)NCc1ccccc1)CN(C(=O)CCCc1ccc(F)cc1)CC2 [CBK285887] | 95.3
56 | CC(=O)NCc1ccc(-c2ccc(C(=O)NCc3ccc4[nH]c(C)c(C)c4c3)c(C)n2)cc1 [CBK285888] | 72.1
57 | CC(C)NC(=O)c1cc(C2CN(C(=O)CCc3ccccc3F)CCO2)nc2ccccc12 (stereo not drawn) [CBK285893] | 109
58 | COc1cccc(C(=O)N2CCOC(c3cc(C(=O)NCC(C)C)c4ccccc4n3)C2)c1 (stereo not drawn) [CBK285894] | 97.4
59 | CCOc1cccc(OCC(=O)N2CCC(c3cc(C(=O)NC)c4ccccc4n3)C2)c1 (stereo not drawn) [CBK285896] | 81.5
60 | CCOc1ccc(CC(=O)NC[C@H]2CC[C@H](c3cc(C(N)=O)c4ccccc4n3)CC2)cc1 [CBK285899] | 92.2
61 | CNC(=O)C1(Cc2ccccc2-c2cccs2)CCN(C(=O)CCc2ccccc2)CC1 [CBK285900] | 108
62 | CNC(=O)C1(Cc2ccccc2-c2ccccc2C)CCN(C(=O)Cc2ccccc2)CC1 [CBK285901] | 106
63 | Cc1nc2ccc(NC(=O)CC3CCN(S(=O)(=O)c4cccc(F)c4)CC3)cc2[nH]1 [CBK285903] | 88.8
64 | O=C(Nc1nc2c(s1)CCCCC2)C1CN(C(=O)Cc2ccc(F)cc2)C1 [CBK285904] | 87.2
65 | CNC(=O)C1(Cc2ccccc2-c2cccs2)CCN(C(=O)c2cccc(OC)c2)CC1 [CBK285907] | 85.7
66 | COc1cccc(CC(=O)N2CCC(Cc3ccccc3-c3cccs3)(C(N)=O)CC2)c1 [CBK285908] | 112
67 | CCOc1ccccc1C(=O)N1CCC(Cc2ccccc2-c2ccccc2)(C(N)=O)CC1 [CBK285910] | 89.6
68 | CNC(=O)C1(Cc2cccc(-c3cccs3)c2)CCN(C(=O)CCc2ccccc2)CC1 [CBK285913] | 90.4
69 | CCOc1ccccc1C(=O)N1CCC(Cc2cccc(-c3cccs3)c2)(C(N)=O)CC1 [CBK285914] | 84.9
70 | Cc1cccc(C)c1OCC(=O)N1CCC(c2cc(C(=O)NC(C)C)c3ccccc3n2)C1 (stereo not drawn) [CBK285916] | 112
71 | CCOc1ccccc1C(=O)N1CCC(c2cc(C(=O)NC(C)C)c3ccccc3n2)C1 (stereo not drawn) [CBK285918] | 106
72 | COc1ccc(CCC(=O)NC[C@H]2CC[C@H](c3cc(C(N)=O)c4ccccc4n3)CC2)cc1 [CBK285920] | 91.7
73 | CNC(=O)C1(Cc2ccccc2-c2ccccc2)CCN(C(=O)c2cccc(OC)c2)CC1 [CBK285922] | 85.3
74 | CNC(=O)c1sc2ccccc2c1C1CCN(Cc2ccc(OC)c(OC(C)C)c2)C1 (stereo not drawn) [CBK285928] | 95.5
75 | CNC(=O)c1sc2ccccc2c1C1CCN(Cc2nc3ccccc3n2C(C)C)C1 (stereo not drawn) [CBK285929] | 98.4
76 | CC(C)NC(=O)c1sc2ccccc2c1C1CN(Cc2ccc3ncccc3c2)CCO1 (stereo not drawn) [CBK285930] | 81.5

same assay, conditions: human, hela cells, % viability, bulk resorufin, single well

Row | SMILES | viability at 28.5 h, 10 µM [%]
77 | O=C1NC(=O)C(CCC(=O)N2CCN(c3nc4ccccc4s3)CC2)C(=O)N1 [CBK285807] | 86.6
78 | O=C(CCC1C(=O)NC(=O)NC1=O)Nc1cccc(-c2nc3ccccc3s2)c1 [CBK285844] | 105
